This is an account of results in US9145351B2, “Azole derivatives, methods for producing the same, intermediate thereof, agro-horticultural agents” (KUREHA CORPORATION, priority 2009, dated 2015).

Molecules are shown by their SMILES. Read-outs that look alike come from different tables or passages of the source. Where only a bound is given, the exact number is not on record here.

Common to all, as to assay type: cell-based
For experiment [1], the system named is Alternaria alternata. Nature of the experiment: Plate medium fungicidal assay, Alternaria blotch A.m (Experimental Example 5). To be noted: Alternaria alternata. The gist of the method:
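Compound dissolved in DMSO and mixed into PDA plates at 50 mg/L and 5 mg/L; 4 mm mycelial plug inoculated. Colony diameter compared with untreated plates, % mycelial growth inhibition = 100(dc−dt)/dc, converted to one of 5 grades.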

The test system of experiment [2] is Curvularia sp. In words: Plate medium assay, industrial material deteriorating microorganism, Curvularia (Experimental Example 5). To be noted: treatment at 50 mg/l, PDA plate medium, read-out: growth inhibition grade. The method, then:
(§1) In this Experimental Example, the fungicidal effects of the inventive compounds on various phytopathogenic fungi for plants and hazardous microorganism for industrial materials were examined by the methods described below. Each inventive compound was dissolved in 2 ml of dimethyl sulfoxide. 0.6 ml of this solution was added to 60 nil of a PDA medium (potato dextrose agar medium) at about 60 degrees C., which was mixed thoroughly in a 100-ml conical flask, and poured into a dish, where it was solidified, thereby obtaining a plate medium containing the inventive compound at 50 mg/L and 5 mg/L. On the other hand, a subject microorganism previously cultured on a plate medium was cut out using a cork borer whose diameter was 4 mm, and inoculated to the test compound-containing plate medium described above. […] The growth degree of the microorganism on the test compound-containing plate medium thus observed was compared with the growth degree of the microorganism in the untreated group, and % mycelial growth inhibition was calculated by the following equation. R=100(dc-dt)/dc wherein R=% mycelial extension inhibition, dc=flora diameter in untreated plate, dt=flora diameter in treated plate. The results obtained as described above were evaluated as one of the 5 grades according to the following criteria.

Experiment [3] relates to Tyromyces palustris. Nature of the experiment: Plate medium assay, wood denaturing microorganism Oouzuratake (Experimental Example 5). To be noted: treatment at 50 mg/l, PDA plate medium; read-out: growth inhibition grade. Here is the method: as §1
The test system of experiment [4] is Fusarium graminearum. In words: microbe, parasite or virus in culture. To be noted: Fusarium graminearum.
The subject of experiment [5] is Ustilago nuda. In words: Plate medium fungicidal assay, barley loose smut U.n (Experimental Example 5). To be noted: Ustilago nuda. The gist of the method: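 Compounds in DMSO were mixed into molten PDA to give plates at 50 mg/L and 5 mg/L, then inoculated with a 4 mm mycelial plug. Colony diameter was compared with untreated plates as % inhibition = 100(dc−dt)/dc, scored on a 5-grade scale.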

Experiment [6] concerns Sclerotinia sclerotiorum. Nature of the experiment: Plate medium fungicidal assay, Sclerotinia rot S.s (Experimental Example 5). To be noted: Sclerotinia sclerotiorum. The gist of the method:
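A 4 mm mycelial plug was placed on PDA plates containing compound at 50 mg/L and 5 mg/L, added from DMSO solution. Colony diameters were compared with untreated plates, % mycelial growth inhibition was R=100(dc−dt)/dc, and scores fell into 5 grades.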

Experiment [7] has as its system Giberella fujikuroi. In words: Plate medium fungicidal assay, rice bakanae disease G.f (Experimental Example 5). The gist of the method:
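Gibberella fujikuroi mycelial plugs (4 mm) placed on PDA plates containing compound at 50 mg/L and 5 mg/L, added from DMSO solution. Colony diameter compared with untreated plates as % inhibition = 100(dc−dt)/dc, then scored in 5 grades.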

The test system of experiment [8] is Pyricularia oryzae. In words: microbe, parasite or virus in culture. To be noted: Pyricularia oryzae.
The mark [9] stands for this setting: plate medium containing compound at 5 mg/L, read-out: Growth inhibition grade, A.m.
The mark [10] stands for this setting: plate medium containing compound at 50 mg/L, read-out: Growth inhibition grade, A.m.
Where [11] appears, read: read-out: Growth inhibition grade, F.g.
[12] abbreviates: plate medium containing compound at 5 mg/L, read-out: Growth inhibition grade, U.n.
Where [13] appears, read: plate medium containing compound at 50 mg/L, read-out: Growth inhibition grade, U.n.
Setting [14] is: plate medium containing compound at 5 mg/L, read-out: Growth inhibition grade, S.s.
The mark [15] stands for this setting: plate medium containing compound at 50 mg/L, read-out: Growth inhibition grade, S.s.
The mark [16] stands for this setting: plate medium containing compound at 5 mg/L, read-out: Growth inhibition grade, G.f.
[17] abbreviates: plate medium containing compound at 50 mg/L, read-out: Growth inhibition grade, G.f.
[18] abbreviates: read-out: Growth inhibition grade, P.o.
Setting [19] is: plate medium, 5 mg/L, read-out: growth inhibition grade A.m.
The mark [20] stands for this setting: plate medium, 50 mg/L, read-out: growth inhibition grade A.m.
Where [21] appears, read: read-out: growth inhibition grade F.g.
The mark [22] stands for this setting: plate medium, 5 mg/L, read-out: growth inhibition grade U.n.
Setting [23] is: plate medium, 50 mg/L, read-out: growth inhibition grade U.n.
[24] abbreviates: plate medium, 5 mg/L, read-out: growth inhibition grade S.s.
[25] abbreviates: plate medium, 50 mg/L, read-out: growth inhibition grade S.s.
Setting [26] is: plate medium, 5 mg/L, read-out: growth inhibition grade G.f.
Setting [27] is: plate medium, 50 mg/L, read-out: growth inhibition grade G.f.
Setting [28] is: read-out: growth inhibition grade P.o.

As for `CC(Cl)=C[C@@]1(C)CC[C@@H](Cc2ccc(Cl)cc2)[C@]1(O)Cn1cncn1` (racemic) [Compound I-15, (1RS,2RS,5SR)-5-(4-chlorobenzyl)-2-(2-chloropropenyl)-2-methyl-1-(1H-1,2,4-triazol-1-ylmethyl)cyclopentanol], the inhibition at 5 µg/mL in experiment [1] (setting [9]), in experiment [4] (setting [11]), in experiment [5] (setting [12]), in experiment [6] (setting [14]), in experiment [7] (setting [16]) and in experiment [8] (setting [18]) was > 80% in each case. In addition, the inhibition at 50 µg/mL in experiment [1] (setting [10]) was > 80%; in experiment [2] it was 60 to 80%; in experiment [3] it was 60 to 80%; in experiment [4] (setting [11]) it was > 80%; in experiment [5] (setting [13]), > 80%; in experiment [6] (setting [15]), > 80%. The inhibition at 50 µg/mL in experiment [7] (setting [17]) and in experiment [8] (setting [18]) was > 80% in each case.
For the molecule `O[C@]1(Cn2cncn2)[C@H](Cc2ccc(Cl)cc2)CC[C@@H]1C(F)(F)F` (racemic) [Compound I-65, (1RS,2SR,5SR)-5-(4-chlorobenzyl)-2-trifluoromethyl-1-(1H-1,2,4-triazol-1-ylmethyl)cyclopentanol], the inhibition at 5 µg/mL lay in the range of 40 to 60% in experiment [1] (setting [9]); 60 to 80% in experiment [4] (setting [11]); 40 to 60% in experiment [5] (setting [12]); 40 to 60% in experiment [6] (setting [14]); 60 to 80% in experiment [7] (setting [16]); 40 to 60% in experiment [8] (setting [18]). Also, the inhibition at 50 µg/mL is > 80% in experiment [1] (setting [10]); 60 to 80% in experiment [2]; 60 to 80% in experiment [3]; > 80% in experiment [4] (setting [11]); > 80% in experiment [5] (setting [13]); > 80% in experiment [6] (setting [15]). The inhibition at 50 µg/mL in experiment [7] (setting [17]) and in experiment [8] (setting [18]) was > 80% throughout.
In the case of `CC[C@]1(CCl)CC[C@@H](Cc2ccc(Cl)cc2)[C@]1(O)Cn1cncn1` (racemic) [Compound I-36, (1RS,2SR,5SR)-5-(4-chlorobenzyl)-2-chloromethyl-2-ethyl-1-(1H-1,2,4-triazol-1-ylmethyl)cyclopentanol], the inhibition at 5 µg/mL was > 80% in experiment [1] (setting [9]); > 80% in experiment [4] (setting [11]); 60 to 80% in experiment [5] (setting [12]); > 80% in experiment [6] (setting [14]); > 80% in experiment [7] (setting [16]); > 80% in experiment [8] (setting [18]). Moreover, the inhibition at 50 µg/mL was > 80% in experiment [1] (setting [10]); 60 to 80% in experiment [2]; 60 to 80% in experiment [3]; > 80% in experiment [4] (setting [11]); > 80% in experiment [5] (setting [13]); > 80% in experiment [6] (setting [15]). Further, the inhibition at 50 µg/mL in experiment [7] (setting [17]) and in experiment [8] (setting [18]) was > 80% in each case.
On to `C[C@]1(CCl)CC[C@@H](Cc2ccc(F)cc2)[C@]1(O)Cn1cncn1` (racemic) [Compound I-77, (1RS,2SR,5SR)-2-chloromethyl-5-(4-fluorobenzyl)-2-methyl-1-(1H-1,2,4-triazol-1-ylmethyl)cyclopentanol], for which the inhibition at 5 µg/mL in experiment [1] (setting [9]), in experiment [1] (setting [19]), in experiment [4] (setting [11]), in experiment [4] (setting [21]), in experiment [5] (setting [12]) and in experiment [5] (setting [22]) was > 80% in each case. In addition, the inhibition at 5 µg/mL in experiment [6] (setting [14]), in experiment [6] (setting [24]), in experiment [7] (setting [16]), in experiment [7] (setting [26]), in experiment [8] (setting [18]) and in experiment [8] (setting [28]) was > 80% each time. In addition, the inhibition at 50 µg/mL was > 80% in experiment [1] (setting [10]); > 80% in experiment [1] (setting [20]); 60 to 80% in experiment [2]; 60 to 80% in experiment [3]; > 80% in experiment [4] (setting [11]); > 80% in experiment [4] (setting [21]). Also, the inhibition at 50 µg/mL in experiment [5] (setting [13]), in experiment [5] (setting [23]), in experiment [6] (setting [15]), in experiment [6] (setting [25]), in experiment [7] (setting [17]) and in experiment [7] (setting [27]) was > 80% in each case. Also, the inhibition at 50 µg/mL in experiment [8] (setting [18]) and in experiment [8] (setting [28]) was > 80% in each case.
Consider `C[C@]1(CCl)CC[C@H](Cc2ccc(Cl)cc2)[C@]1(O)Cn1cncn1` (racemic) [Compound I-301, (1RS,2SR,5RS)-5-(4-chlorobenzyl)-2-chloromethyl-2-methyl-1-[1,2,4]triazol-1-ylmethylcyclopentanol], for which the inhibition at 5 µg/mL in experiment [1] (setting [19]), in experiment [4] (setting [21]), in experiment [5] (setting [22]), in experiment [6] (setting [24]), in experiment [7] (setting [26]) and in experiment [8] (setting [28]) was > 80% throughout. Also, the inhibition at 50 µg/mL in experiment [1] (setting [20]) was > 80%; in experiment [2], 60 to 80%; in experiment [3], 60 to 80%; in experiment [4] (setting [21]), > 80%; in experiment [5] (setting [23]), > 80%; in experiment [6] (setting [25]) it was > 80%. Moreover, the inhibition at 50 µg/mL in experiment [7] (setting [27]) and in experiment [8] (setting [28]) was > 80% throughout.
For the molecule `C[C@]1(CCl)CC[C@@H](Cc2ccc(Cl)cc2)[C@]1(O)Cn1cncn1` (racemic) [Compound I-1, (1RS,2SR,5SR)-5-(4-chlorobenzyl)-2-chloromethyl-2-methyl-1-(1H-1,2,4-triazol-1-ylmethyl)cyclopentanol], the inhibition at 5 µg/mL in experiment [1] (setting [9]), in experiment [1] (setting [19]), in experiment [4] (setting [11]), in experiment [4] (setting [21]), in experiment [5] (setting [12]) and in experiment [5] (setting [22]) was > 80% throughout. In addition, the inhibition at 5 µg/mL in experiment [6] (setting [14]), in experiment [6] (setting [24]), in experiment [7] (setting [16]), in experiment [7] (setting [26]), in experiment [8] (setting [18]) and in experiment [8] (setting [28]) was > 80% in each case. Also, the inhibition at 50 µg/mL in experiment [1] (setting [10]) was > 80%; in experiment [1] (setting [20]), > 80%; in experiment [2], 60 to 80%; in experiment [3], 60 to 80%; in experiment [4] (setting [11]) it was > 80%; in experiment [4] (setting [21]) it was > 80%. The inhibition at 50 µg/mL in experiment [5] (setting [13]), in experiment [5] (setting [23]), in experiment [6] (setting [15]), in experiment [6] (setting [25]), in experiment [7] (setting [17]) and in experiment [7] (setting [27]) was > 80% throughout. The inhibition at 50 µg/mL in experiment [8] (setting [18]) and in experiment [8] (setting [28]) was > 80% in each case.
For the molecule `CC(Cl)=C[C@]1(C)CC[C@@H](Cc2ccc(Cl)cc2)[C@]1(O)Cn1cncn1` (racemic) [Compound I-115, (1RS,2SR,5SR)-5-(4-chlorobenzyl)-2-(2-chloropropenyl)-2-methyl-1-(1H-1,2,4-triazol-1-ylmethyl)cyclopentanol], the inhibition at 5 µg/mL in experiment [1] (setting [19]) is > 80%; in experiment [4] (setting [21]), > 80%; in experiment [5] (setting [22]), 60 to 80%; in experiment [6] (setting [24]), > 80%; in experiment [7] (setting [26]), > 80%; in experiment [8] (setting [28]), > 80%. The inhibition at 50 µg/mL in experiment [1] (setting [20]) was > 80%; in experiment [2], 60 to 80%; in experiment [3], 60 to 80%; in experiment [4] (setting [21]) it was > 80%; in experiment [5] (setting [23]) it was > 80%; in experiment [6] (setting [25]), > 80%. For the same molecule, the inhibition at 50 µg/mL in experiment [7] (setting [27]) and in experiment [8] (setting [28]) was > 80% throughout.
